In patent US20110281852A1 (priority 2010, published 2011):

How the values were obtained:
[1] = test system: low density lipoprotein receptor (LDLR); experiment: Real-time RT-PCR, LDLR mRNA in 3T3-L1; type: cell-based, mouse; conditions: 8 days
Description: Realtime RT-PCR: Real-time reverse transcriptase polymerase chain reaction (RT-PCR) analysis was used to measure mRNA expression of genes SREBP-1, PPARγ, C/EBPα, low density lipoprotein receptor (LDLR), Adiponectin, and fatty acid synthase (FAS) under the control of β-actin. Briefly, total RNA was isolated from 3T3-L1 cells following treatment for 8 days with Trizol reagent (Invitrogen, Carlsbad, Calif., USA) according to the manufacturer's instruction. RNA was quantified using absorption of light at 260 nm, and sample purity was checked by OD 260 nm/280 nm. 0.8 μg of total RNA from each sample was used for reverse transcription reaction using the TaqMan Reverse Transcription Reagents (Applied Biosystems, Foster City, Calif., USA) according to the manufacturers' instructions. PCR was done using the SYBR green Master Mix (Applied Biosystems, Foster City, Calif., USA) according to the manufacturers' instructions. The temperature cycling conditions of amplification were as follows: an initial step of denaturation at 95° C. for 10 min, 40 cycles of denaturation at 95° C. for 30 s, annealing at 55° C. for 30 s, and elongation at 72° C. for 30 s. Realtime RT-PCR was performed using Mx3000P Realtime Thermocyclers (Statagene, La Jolla, Calif., USA). The relative mRNA levels of these genes were calculated by 2-delta delta CT method and normalized with control groups.

3T3-L1 cells = experiment: Oil-Red-O staining and quantification, berberine with amentoflavone in 3T3-L1 (Example 6); type: cell-based, mouse; conditions: 8 days
Procedure: Oil-Red-O staining and quantification: Oil-Red-O Staining and its quantification were performed as previously reported. Briefly, medium was removed and cells were washed with PBS twice, fixed with 3.7% formalin at room temperature for 30 min, then rinsed with pure water, added 60% isopropanol and incubated for 5 minutes, then moved out isopropanol and stained cells with diluted Oil-Red-O solution (Oil-Red-O store solution (3 mg/ml in pure isopropanol): water=3:2) at room temperature for 10 min. Then the diluted Oil-Red-O solution was removed and cells were washed 3 times with pure water. After staining, the cells were washed twice with 70% ethanol to remove excess stain. Stained oil droplets in the cells were dissolved in isopropanol containing 4% Nonidet-P40 (Fisher Scientific, Pittsburgh, Pa., USA) shaking in 37° C. at speed 100 rpm for 1 hour, and OD values were measured at an absorbance of 490 nm and then normalized with control group.

[2] = Food intake, high-fat diet and normal diet mice; type: in vivo, mouse
Description: Six mice per subgroup were obtained finally.

[3] = Description: Mouse experiments: All experiments were approved by Institutional Animal Care and Use Committee of South Dakota State University. Nine-week-old C57BL/6J male mice were purchased from The Jackson Laboratory. Group 1 mice were fed with normal diet (ND, D12450Bi, Research Diets Inc. New Brunswick, N.J., USA) for 9 weeks, group 2 mice were fed with ND for 6 weeks and then high-fat diet (FD, D12451i, Research Diets Inc. New Brunswick, N.J., USA) for 3 weeks. The mice were maintained according to The Jackson Laboratory guidelines for animal care and housed at 22±2° C. temperature, 55±5% relative humidity, with a light/dark cycle of 12 hours. Food (group 1 with normal fat diet and group 2 with high-fat diet until sacrifice) and water were provided ad libitum. […] Six mice per subgroup were obtained finally. […] Blood samples were collected from the hearts of anesthetized mice after feeding and treatment for 36 days following fast for 16 hours. When sacrificed, mouse liver, kidney, spleen and epididymal fat tissues were dissected and weighed. Epididymal fat tissues were immediately frozen in liquid nitrogen and stored at −80° C.
GATA-2 = experiment: Immunoblot, GATA-2 protein in HWP; type: cell-based, human; conditions: day 15
Procedure: Immunoblot Analysis: Protein expression of GATA-2, GATA-3, PPARγ and C/EBPα were assessed by Western Blot. Total proteins were isolated from HWP treated with compounds or vehicles on day 15. The cells were washed twice with PBS, lysed in a lysis buffer containing HEPES-Tx-PI buffer: […] HEPES, 5 mM EDTA, 350 mM Sucrose, 1 μg/ml leupeptin, 1 μg/ml pepstatin, 1% Triton-X, 1 mM PMSF), processed with a 25G needle and centrifuged at 10,000 rpm for 5 min. Protein concentration was determined using the Micro BCA Protein Assay Kit (Fisher Scientific, Pittsburgh, Pa., USA) according to the manufacturers instructions. 20 μg proteins were loaded and separated by electrophoresis using the BioRad Electrophoretic System (60 V for 1 hour followed by 90 V for 5 hours). The proteins were then transferred to nitrocellulose membranes at 35 V overnight. The membrane was blocked for 1 hour at room temperature in 5% nonfat milk in Tris-buffered saline (TBS), then washed with Tween-20-TBS (TTBS, 0.1% Tween-20) three times (15 min, 5 min, 5 min), followed by incubation with primary antibodies human GATA-2, GATA-3, PPARγ, C/EBPα and β-actin (dilution 1:200) (all antibodies were purchased from Santa Cruz Biotechnology, Santa Cruz, Calif., USA) at room temperature for 2 hours. The membrane was rinsed three times (15 min, 5 min, 5 min), then incubated at room temperature for 1 hour with Horseradish peroxidase-conjugated second antibody (1:10,000). The membrane was then incubated in ECL reagent (GE Healthcare, Piscataway, N.J., USA) for 1 minute. Protein was visualized using the UVP image analysis system (UVP, Upland, Calif., USA).

[4] = test system: SERT (serotonin transporter); experiment: Immunoblot, SERT protein in RN46A cells; type: cell-based
Procedure: Immunoblot Analysis: Protein expression of SERT was assessed by Western Blot. Total proteins were isolated from RN46A cells treated with compounds or vehicles. The cells were washed twice with PBS, lysed in a lysis buffer containing HEPES-Tx-PI buffer: 910 mM HEPES, 5 mM EDTA, 350 mM Sucrose, 1 μg/ml leupeptin, 1 μg/ml pepstatin, 1% Triton-X, 1 mM PMSF), processed with a 25G needle and centrifuged at 10,000 rpm for 5 min. Protein concentration was determined using the Micro BCA Protein Assay Kit (Fisher Scientific, Pittsburgh, Pa., USA) according to the manufacturers instructions. 25 μg proteins were loaded and separated by electrophoresis using the BioRad Electrophoretic System (60 V for 1 hour followed by 90 V for 5 hours). The proteins were then transferred to nitrocellulose membranes at 35 V overnight. The membrane was blocked for 1 hour at room temperature in 5% nonfat milk in Tris-buffered saline (TBS), then washed with Tween-20-TBS (TTBS, 0.1% Tween-20) three times (15 min, 5 min, 5 min), followed by incubation with primary antibodies SERT (dilution 1:200) (Antibody was purchased from Santa Cruz Biotechnology, Santa Cruz, Calif., USA) and β-actin (dilution 1:1000) (Antibody was purchased from Sigma-aldrich, USA) at room temperature for 2 hours. […]

Compound | decrease of LDLR mRNA expression vs clozapine treated group ([1]; 8 μM berberine + 15 μM clozapine) | decrease of LDLR mRNA expression vs risperidone treated group ([1]; 8 μM berberine + 50 μM risperidone) | reduction in lipid content vs no berberine treated group (3T3-L1 cells; 2 μM berberine, differentiation medium with 15 μM clozapine) | reduction in lipid content vs no berberine treated group (3T3-L1 cells; 2 μM berberine, differentiation medium without clozapine) | reduction in lipid content vs no berberine treated group (3T3-L1 cells; 4 μM berberine, differentiation medium with 15 μM clozapine) | reduction in lipid content vs no berberine treated group (3T3-L1 cells; 4 μM berberine, differentiation medium without clozapine) | reduction in lipid content vs no berberine treated group (3T3-L1 cells; 8 μM berberine, differentiation medium with 15 μM clozapine) | reduction in lipid content vs no berberine treated group (3T3-L1 cells; 8 μM berberine, differentiation medium without clozapine) | reduction in lipid content vs no berberine treated group (3T3-L1 cells; 16 μM berberine, differentiation medium without clozapine) | food intake ([2]; FD mice, 0.75 mg/kg/day, 36 days (control 3.5±0.4)) | food intake ([2]; FD mice, 1.5 mg/kg/day, 36 days) | food intake ([2]; FD mice, 3 mg/kg/day, 36 days) | food intake ([2]; ND mice, 3 mg/kg/day, 36 days (control 3.8±0.7)) | liver weight, berberine vs control treated subgroup ([3]; ND mice) | toxicity to FD mice organs or to ND mice ([3]; up to 3 mg/kg/day i.p., 36 days) | GATA-2 protein expression relative to β-actin, normalized with controls (GATA-2; 1 μM) | GATA-2 protein expression relative to β-actin, normalized with controls (GATA-2; 2 μM) | GATA-2 protein expression relative to β-actin, normalized with controls (GATA-2; 4 μM) | SERT protein expression profile (Western blot) [4]
COc1ccc2cc3[n+](cc2c1OC)CCc1cc2c(cc1-3)OCO2.[Cl-] [berberine, Berberine (Chloride Form)] | 82.3% | 90% | 26% | 9.9% | 70.7% | 59.6% | 88.1% | 81.7% | 81% | 3.0±0.3 g/mouse/day | 2.7±0.5 g/mouse/day | 2.5±0.2 g/mouse/day | 3.3±0.5 g/mouse/day | no significant difference | did not appear to exhibit any obvious toxicity |  |  |  | 
evodiamine |  |  |  |  |  |  |  |  |  |  |  |  |  |  |  | 2.44 fold | 4.81 fold | 4.92 fold | consistent with its mRNA expression profile
